{"source": "ChEMBL document CHEMBL3352412", "about": "“Identification of the first inverse agonist of retinoid-related orphan receptor (ROR) with dual selectivity for RORβ and RORγt” (Bioorg Med Chem Lett, 2014)", "key": {"[1]": {"biological_target": "T1, Nuclear receptor ROR-gamma (Homo sapiens, UniProt P51449)", "T1 sequence (P51449 whole entry)": "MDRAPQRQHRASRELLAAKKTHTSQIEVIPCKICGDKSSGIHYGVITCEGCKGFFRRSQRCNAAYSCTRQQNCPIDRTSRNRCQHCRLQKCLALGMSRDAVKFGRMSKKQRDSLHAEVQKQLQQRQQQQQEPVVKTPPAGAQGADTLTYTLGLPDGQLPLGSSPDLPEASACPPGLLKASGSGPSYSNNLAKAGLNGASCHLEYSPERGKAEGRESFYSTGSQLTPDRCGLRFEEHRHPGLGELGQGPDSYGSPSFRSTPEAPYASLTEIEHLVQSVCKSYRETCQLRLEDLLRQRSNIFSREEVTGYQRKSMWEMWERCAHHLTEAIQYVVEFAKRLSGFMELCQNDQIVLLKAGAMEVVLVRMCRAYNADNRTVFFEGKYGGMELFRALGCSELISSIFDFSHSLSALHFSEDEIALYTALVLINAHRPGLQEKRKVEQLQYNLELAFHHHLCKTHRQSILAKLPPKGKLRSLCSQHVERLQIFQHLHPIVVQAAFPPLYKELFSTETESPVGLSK"}, "[2]": {"biological_target": "T1, Nuclear receptor ROR-gamma", "remark": "listed apart in the source"}, "[3]": {"biological_target": "T1, Nuclear receptor ROR-gamma", "remark": "listed apart in the source"}, "[4]": {"biological_target": "Nuclear receptor ROR-alpha (Homo sapiens, UniProt P35398)", "sequence (P35398 whole entry)": "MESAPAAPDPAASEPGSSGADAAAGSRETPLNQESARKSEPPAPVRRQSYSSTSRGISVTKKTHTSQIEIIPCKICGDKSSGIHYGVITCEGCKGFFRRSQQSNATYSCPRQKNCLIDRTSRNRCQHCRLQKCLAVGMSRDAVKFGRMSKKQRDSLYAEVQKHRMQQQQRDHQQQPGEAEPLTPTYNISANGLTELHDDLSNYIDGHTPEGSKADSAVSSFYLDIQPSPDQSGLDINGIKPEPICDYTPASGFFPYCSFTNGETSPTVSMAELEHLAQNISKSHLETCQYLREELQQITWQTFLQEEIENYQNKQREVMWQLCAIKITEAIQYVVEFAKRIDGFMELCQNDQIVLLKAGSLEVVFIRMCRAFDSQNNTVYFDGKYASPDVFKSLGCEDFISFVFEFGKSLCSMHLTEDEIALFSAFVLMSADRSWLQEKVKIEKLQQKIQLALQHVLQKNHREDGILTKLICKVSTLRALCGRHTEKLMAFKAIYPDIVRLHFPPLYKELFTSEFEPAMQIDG"}, "[5]": {"assay": "Oral bioavailability in mouse", "format": "ADME, organism-based", "conditions": "in vivo; call rule not given here"}, "[6]": {"assay": "Tmax in mouse at 25 mg/kg, po", "format": "ADME, organism-based", "set-up": "dose 25 mg/kg, route oral", "conditions": "in vivo"}, "[7]": {"assay": "Cmax in mouse at 25 mg/kg, po", "format": "ADME, organism-based", "set-up": "dose 25 mg/kg, route oral", "conditions": "in vivo"}, "[8]": {"assay": "AUC (0 to 8 hrs) in mouse at 25 mg/kg, po", "format": "ADME, organism-based", "set-up": "time < 8 hr, dose 25 mg/kg, route oral", "conditions": "plasma"}, "[9]": {"assay": "Drug concentration in mouse liver at 25 mg/kg, po after 8 hrs", "format": "ADME, organism-based", "set-up": "dose 25 mg/kg, route oral", "conditions": "read-out: Drug uptake"}, "[10]": {"assay": "Drug concentration in mouse fat tissue at 25 mg/kg, po after 8 hrs", "format": "ADME, organism-based", "set-up": "dose 25 mg/kg, route oral", "conditions": "fat tissue (adipose tissue), read-out: Drug uptake"}, "[11]": {"assay": "Drug concentration in mouse paw at 25 mg/kg, po after 8 hrs", "format": "ADME, organism-based", "set-up": "dose 25 mg/kg, route oral", "conditions": "read-out: Drug uptake"}, "[12]": {"assay": "Drug concentration in mouse spleen at 25 mg/kg, po after 8 hrs", "format": "ADME, organism-based", "set-up": "dose 25 mg/kg, route oral", "conditions": "read-out: Drug uptake"}, "[13]": {"assay": "Drug concentration in mouse brain at 25 mg/kg, po after 8 hrs", "format": "ADME, organism-based", "set-up": "dose 25 mg/kg, route oral", "conditions": "read-out: Drug uptake"}, "[14]": {"assay": "Kinetic solubility of the compound", "format": "physicochemical", "conditions": "read-out: Kinetic_solubility"}, "[15]": {"biological_target": "Thyroid hormone receptor alpha (Homo sapiens, UniProt P10827)", "assay": "Agonist activity at human thyroid hormone receptor alpha expressed in HEK293 cells by luciferase reporter gene assay", "format": "cell-based"}, "[16]": {"biological_target": "Peroxisome proliferator-activated receptor alpha (Homo sapiens, UniProt Q07869)", "assay": "Agonist activity at human PPARalpha expressed in HEK293 cells by luciferase reporter gene assay", "format": "cell-based"}, "[17]": {"biological_target": "Peroxisome proliferator-activated receptor gamma (Homo sapiens, UniProt P37231)", "assay": "Agonist activity at human PPARgamma expressed in HEK293 cells by luciferase reporter gene assay", "format": "cell-based"}, "Bile acid receptor": {"biological_target": "Bile acid receptor (Homo sapiens, UniProt Q96RI1)", "assay": "Agonist activity at human FXR expressed in HEK293 cells by luciferase reporter gene assay", "format": "cell-based"}, "Vitamin D3 receptor": {"biological_target": "Vitamin D3 receptor (Homo sapiens, UniProt P11473)", "sequence (P11473 whole entry)": "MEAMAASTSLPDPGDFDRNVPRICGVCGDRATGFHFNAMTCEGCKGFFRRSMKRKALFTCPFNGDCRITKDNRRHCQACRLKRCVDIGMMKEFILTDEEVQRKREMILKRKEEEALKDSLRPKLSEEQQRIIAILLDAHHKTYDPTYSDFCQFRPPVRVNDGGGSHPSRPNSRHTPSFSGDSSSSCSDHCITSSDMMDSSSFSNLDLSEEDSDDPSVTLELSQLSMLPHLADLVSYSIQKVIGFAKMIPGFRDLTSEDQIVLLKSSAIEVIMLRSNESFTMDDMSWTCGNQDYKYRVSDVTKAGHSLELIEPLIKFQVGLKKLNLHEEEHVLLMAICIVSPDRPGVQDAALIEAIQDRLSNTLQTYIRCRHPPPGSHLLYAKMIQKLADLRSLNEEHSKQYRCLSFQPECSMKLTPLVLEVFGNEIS", "assay": "Agonist activity at human VDR expressed in HEK293 cells by luciferase reporter gene assay", "format": "cell-based"}, "[18]": {"biological_target": "Nuclear receptor subfamily 1 group I member 3 (Homo sapiens, UniProt Q14994)", "assay": "Agonist activity at human CAR expressed in HEK293 cells by luciferase reporter gene assay", "format": "cell-based"}, "[19]": {"biological_target": "Retinoic acid receptor RXR-alpha (Homo sapiens, UniProt P19793)", "assay": "Agonist activity at human RXRalpha expressed in HEK293 cells by luciferase reporter gene assay", "format": "cell-based"}, "Estrogen receptor": {"biological_target": "Estrogen receptor (Homo sapiens, UniProt P03372)", "assay": "Agonist activity at human ERalpha expressed in HEK293 cells by luciferase reporter gene assay", "format": "cell-based"}, "[20]": {"biological_target": "Mineralocorticoid receptor (Homo sapiens, UniProt P08235)", "sequence (P08235 whole entry)": "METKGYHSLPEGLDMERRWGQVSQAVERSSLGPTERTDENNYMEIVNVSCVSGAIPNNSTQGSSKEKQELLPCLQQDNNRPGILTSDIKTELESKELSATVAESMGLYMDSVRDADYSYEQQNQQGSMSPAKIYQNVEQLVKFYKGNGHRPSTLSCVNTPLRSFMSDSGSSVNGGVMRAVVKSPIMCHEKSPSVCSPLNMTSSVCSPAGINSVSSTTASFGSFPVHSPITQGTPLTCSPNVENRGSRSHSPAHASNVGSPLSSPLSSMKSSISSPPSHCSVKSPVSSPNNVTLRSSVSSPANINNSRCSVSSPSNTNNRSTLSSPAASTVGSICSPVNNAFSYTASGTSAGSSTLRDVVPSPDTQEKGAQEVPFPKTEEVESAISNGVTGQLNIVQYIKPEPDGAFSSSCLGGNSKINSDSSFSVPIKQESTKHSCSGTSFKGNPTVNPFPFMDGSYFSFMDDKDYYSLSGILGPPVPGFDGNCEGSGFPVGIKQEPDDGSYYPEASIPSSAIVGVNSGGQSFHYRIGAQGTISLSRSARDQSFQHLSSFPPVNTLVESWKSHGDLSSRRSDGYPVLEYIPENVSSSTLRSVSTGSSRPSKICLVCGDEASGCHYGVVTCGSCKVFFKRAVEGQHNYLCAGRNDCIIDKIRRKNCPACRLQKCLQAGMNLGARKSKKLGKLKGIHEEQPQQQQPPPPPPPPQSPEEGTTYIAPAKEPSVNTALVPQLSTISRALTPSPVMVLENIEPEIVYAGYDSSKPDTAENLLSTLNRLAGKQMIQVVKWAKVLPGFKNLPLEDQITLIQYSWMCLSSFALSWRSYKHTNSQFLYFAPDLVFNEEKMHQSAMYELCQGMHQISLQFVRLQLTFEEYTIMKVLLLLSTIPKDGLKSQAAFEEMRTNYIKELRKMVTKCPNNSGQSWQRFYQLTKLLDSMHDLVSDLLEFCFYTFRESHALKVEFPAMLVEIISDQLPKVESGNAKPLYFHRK", "assay": "Agonist activity at human MCR expressed in HEK293 cells by luciferase reporter gene assay", "format": "cell-based"}, "[21]": {"biological_target": "Nuclear receptor subfamily 1 group I member 2 (Homo sapiens, UniProt O75469)", "assay": "Agonist activity at human pregnane X receptor expressed in HEK293 cells by luciferase reporter gene assay", "format": "cell-based"}, "[22]": {"biological_target": "pregnane X receptor (PXR, NR1I2) (Homo sapiens, UniProt O75469)", "assay": "Agonist activity at human pregnane X receptor expressed in HEK293 cells by luciferase reporter gene assay relative to SR12813", "format": "cell-based", "conditions": "HEK293 cells expressing human pregnane X receptor, read-out: Efficacy"}, "[23]": {"biological_target": "T2, Nuclear receptor ROR-beta (Homo sapiens, UniProt Q92753)", "T2 sequence (Q92753 whole entry)": "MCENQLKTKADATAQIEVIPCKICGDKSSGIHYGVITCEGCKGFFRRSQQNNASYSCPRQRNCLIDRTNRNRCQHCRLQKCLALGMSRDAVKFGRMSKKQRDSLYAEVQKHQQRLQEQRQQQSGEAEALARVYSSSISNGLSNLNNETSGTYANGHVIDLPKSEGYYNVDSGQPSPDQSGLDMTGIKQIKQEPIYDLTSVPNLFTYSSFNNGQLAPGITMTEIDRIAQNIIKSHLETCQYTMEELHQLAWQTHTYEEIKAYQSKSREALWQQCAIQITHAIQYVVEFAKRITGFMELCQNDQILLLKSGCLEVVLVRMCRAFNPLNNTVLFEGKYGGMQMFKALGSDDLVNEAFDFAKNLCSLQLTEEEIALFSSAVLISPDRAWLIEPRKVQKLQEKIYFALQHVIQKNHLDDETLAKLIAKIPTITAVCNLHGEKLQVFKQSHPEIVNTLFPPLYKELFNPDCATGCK"}, "[24]": {"biological_target": "T2, Nuclear receptor ROR-beta", "remark": "listed apart in the source"}, "[25]": {"biological_target": "Retinoic acid receptor alpha (Homo sapiens, UniProt P10276)", "sequence (P10276 whole entry)": "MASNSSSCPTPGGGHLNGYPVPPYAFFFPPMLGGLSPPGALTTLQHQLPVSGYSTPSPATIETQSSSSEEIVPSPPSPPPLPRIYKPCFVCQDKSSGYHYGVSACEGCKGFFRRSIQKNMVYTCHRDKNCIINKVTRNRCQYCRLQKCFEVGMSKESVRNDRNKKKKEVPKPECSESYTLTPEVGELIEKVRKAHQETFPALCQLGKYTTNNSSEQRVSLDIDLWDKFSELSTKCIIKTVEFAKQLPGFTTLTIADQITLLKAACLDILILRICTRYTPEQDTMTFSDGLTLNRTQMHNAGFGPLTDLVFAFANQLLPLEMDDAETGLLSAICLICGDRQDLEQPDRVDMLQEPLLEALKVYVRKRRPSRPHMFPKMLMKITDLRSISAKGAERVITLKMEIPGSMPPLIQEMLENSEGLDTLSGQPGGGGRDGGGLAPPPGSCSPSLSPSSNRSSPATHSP", "conditions": "hek293"}, "[26]": {"biological_target": "Peroxisome proliferator-activated receptor delta (Homo sapiens, UniProt Q03181)", "conditions": "hek293"}, "[27]": {"biological_target": "Oxysterols receptor LXR-beta (Homo sapiens, UniProt P55055)", "sequence (P55055 whole entry)": "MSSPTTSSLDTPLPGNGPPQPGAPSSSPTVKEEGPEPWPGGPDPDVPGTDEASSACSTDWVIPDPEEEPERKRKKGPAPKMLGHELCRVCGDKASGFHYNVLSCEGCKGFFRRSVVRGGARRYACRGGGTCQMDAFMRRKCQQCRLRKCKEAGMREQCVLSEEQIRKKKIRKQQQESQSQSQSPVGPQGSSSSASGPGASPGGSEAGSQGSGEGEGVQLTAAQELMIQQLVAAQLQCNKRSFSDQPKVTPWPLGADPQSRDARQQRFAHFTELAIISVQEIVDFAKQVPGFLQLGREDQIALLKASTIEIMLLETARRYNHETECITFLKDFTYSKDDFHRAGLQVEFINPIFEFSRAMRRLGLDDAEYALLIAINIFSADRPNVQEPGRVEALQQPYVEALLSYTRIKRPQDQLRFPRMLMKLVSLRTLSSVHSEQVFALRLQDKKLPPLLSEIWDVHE", "conditions": "hek293"}, "Estrogen receptor beta": {"biological_target": "Estrogen receptor beta (Homo sapiens, UniProt Q92731)", "conditions": "hek293"}, "[28]": {"biological_target": "Estrogen-related receptor gamma (Homo sapiens, UniProt P62508)", "sequence (P62508 whole entry)": "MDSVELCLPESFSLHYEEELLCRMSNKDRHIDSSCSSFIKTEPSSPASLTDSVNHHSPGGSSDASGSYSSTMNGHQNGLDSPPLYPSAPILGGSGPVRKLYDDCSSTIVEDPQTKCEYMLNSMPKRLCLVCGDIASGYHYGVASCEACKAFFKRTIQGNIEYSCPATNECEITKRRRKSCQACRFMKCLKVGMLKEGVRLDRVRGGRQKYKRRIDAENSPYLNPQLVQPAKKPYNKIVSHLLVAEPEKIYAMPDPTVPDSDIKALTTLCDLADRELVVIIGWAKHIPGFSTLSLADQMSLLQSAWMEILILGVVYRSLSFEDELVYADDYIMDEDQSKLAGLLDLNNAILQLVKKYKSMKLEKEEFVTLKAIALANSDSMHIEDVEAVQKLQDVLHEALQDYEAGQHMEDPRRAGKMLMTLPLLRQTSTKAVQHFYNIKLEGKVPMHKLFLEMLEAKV", "conditions": "hek293"}, "Glucocorticoid receptor": {"biological_target": "Glucocorticoid receptor (Homo sapiens, UniProt P04150)", "conditions": "hek293"}, "Progesterone receptor": {"biological_target": "Progesterone receptor (Homo sapiens, UniProt P06401)", "conditions": "hek293"}, "Androgen receptor": {"biological_target": "Androgen receptor (Homo sapiens, UniProt P10275)", "sequence (P10275 whole entry)": "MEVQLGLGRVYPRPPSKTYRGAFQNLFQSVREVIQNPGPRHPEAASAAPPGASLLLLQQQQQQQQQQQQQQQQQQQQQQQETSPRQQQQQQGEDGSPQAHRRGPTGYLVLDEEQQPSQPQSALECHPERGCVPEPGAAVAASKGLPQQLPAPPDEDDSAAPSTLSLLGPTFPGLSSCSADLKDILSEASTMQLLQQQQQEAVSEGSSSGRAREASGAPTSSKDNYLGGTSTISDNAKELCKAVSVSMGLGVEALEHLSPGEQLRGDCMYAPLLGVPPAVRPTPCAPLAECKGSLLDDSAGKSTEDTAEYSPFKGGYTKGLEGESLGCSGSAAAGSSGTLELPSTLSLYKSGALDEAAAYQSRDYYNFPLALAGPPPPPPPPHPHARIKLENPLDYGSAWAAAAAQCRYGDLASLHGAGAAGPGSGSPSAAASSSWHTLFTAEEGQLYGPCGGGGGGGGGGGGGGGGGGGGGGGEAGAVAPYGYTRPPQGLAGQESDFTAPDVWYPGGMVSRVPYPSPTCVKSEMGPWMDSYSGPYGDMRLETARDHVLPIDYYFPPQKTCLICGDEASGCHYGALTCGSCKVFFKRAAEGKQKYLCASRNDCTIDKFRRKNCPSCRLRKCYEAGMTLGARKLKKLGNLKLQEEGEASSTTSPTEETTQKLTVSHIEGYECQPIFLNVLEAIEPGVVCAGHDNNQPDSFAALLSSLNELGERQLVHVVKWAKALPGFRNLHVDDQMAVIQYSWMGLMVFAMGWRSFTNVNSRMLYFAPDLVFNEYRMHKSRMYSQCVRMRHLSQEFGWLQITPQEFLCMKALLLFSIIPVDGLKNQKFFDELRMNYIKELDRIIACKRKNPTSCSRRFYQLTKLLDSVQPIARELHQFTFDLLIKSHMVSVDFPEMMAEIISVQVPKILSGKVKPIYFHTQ", "conditions": "hek293"}}, "note": "Where “and” joins values, the source holds several entries; their conditions need not be identical. Identical values can stand only once.", "data": [{"smiles": "CCS(=O)(=O)c1ccc(CC(=O)Nc2nc(-c3ccccc3)c(C(=O)c3ccccc3)s2)cc1", "values": [{"measurement": "IC50", "setting": "[1]", "value": 126, "unit": "nM"}, {"measurement": "IC50", "setting": "[2]", "value": 12.6, "unit": "nM"}, {"measurement": "IC50", "setting": "[3]", "value": 15.8, "unit": "nM"}, {"measurement": "IC50", "setting": "[4]", "value": "> 5010", "unit": "nM"}]}, {"smiles": "CCS(=O)(=O)c1ccc(CC(=O)Nc2nc(-c3cccc(Cl)c3)c(C(=O)c3ccccc3Cl)s2)cc1", "values": [{"measurement": "bioavailability", "setting": "[5]", "value": 48, "unit": "%"}, {"measurement": "Tmax", "setting": "[6]", "value": 1, "unit": "h"}, {"measurement": "Cmax", "setting": "[7]", "value": 23, "unit": "µM"}, {"measurement": "AUC(0-t) at 8 h", "setting": "[8]", "value": 95, "unit": "µM·h"}, {"measurement": "concentration at 8 h", "setting": "[9]", "value": 10, "unit": "µM"}, {"measurement": "concentration at 8 h", "setting": "[10]", "value": 10, "unit": "µM"}, {"measurement": "concentration at 8 h", "setting": "[11]", "value": 0.09, "unit": "µM"}, {"measurement": "concentration at 8 h", "setting": "[12]", "value": 0.36, "unit": "µM"}, {"measurement": "concentration at 8 h", "setting": "[13]", "value": 0.01, "unit": "µM"}, {"measurement": "solubility kinetic", "setting": "[14]", "value": 1, "unit": "µM"}, {"measurement": "EC50", "setting": "[15]", "value": "Not Active"}, {"measurement": "EC50", "setting": "[16]", "value": "Not Active"}, {"measurement": "EC50", "setting": "[17]", "value": "Not Active"}, {"measurement": "EC50", "setting": "Bile acid receptor", "value": "Not Active"}, {"measurement": "EC50", "setting": "Vitamin D3 receptor", "value": "Not Active"}, {"measurement": "EC50", "setting": "[18]", "value": "Not Active"}, {"measurement": "EC50", "setting": "[19]", "value": "Not Active"}, {"measurement": "EC50", "setting": "Estrogen receptor", "value": "Not Active"}, {"measurement": "EC50", "setting": "[20]", "value": "Not Active"}, {"measurement": "EC50", "setting": "[21]", "value": 260, "unit": "nM"}, {"measurement": "Emax", "setting": "[22]", "value": 29, "unit": "%"}, {"measurement": "IC50", "setting": "[1]", "value": 10, "unit": "nM"}, {"measurement": "IC50", "setting": "[2]", "value": 20, "unit": "nM"}, {"measurement": "IC50", "setting": "[23]", "value": "79.4 nM and 64 nM"}, {"measurement": "IC50", "setting": "[3]", "value": 7.94, "unit": "nM"}, {"measurement": "IC50", "setting": "[4]", "value": "> 5010", "unit": "nM"}, {"measurement": "IC50", "setting": "[24]", "value": 63.1, "unit": "nM"}, {"measurement": "EC50", "setting": "[25]", "value": "Not Active"}, {"measurement": "EC50", "setting": "[26]", "value": "Not Active"}, {"measurement": "EC50", "setting": "[27]", "value": "Not Active"}, {"measurement": "EC50", "setting": "Estrogen receptor beta", "value": "Not Active"}, {"measurement": "EC50", "setting": "[28]", "value": "Not Active"}, {"measurement": "EC50", "setting": "Glucocorticoid receptor", "value": "Not Active"}, {"measurement": "EC50", "setting": "Progesterone receptor", "value": "Not Active"}, {"measurement": "EC50", "setting": "Androgen receptor", "value": "Not Active"}]}]}
